Measured values as given in patent publication US20040242459A1 (priority 2001, published 2004).
Marks after values point to notes of the source that are not given here.

Legend:
[1] = system: adjuvant-induced arthritis in female Lewis rats
Procedure: Nine groups of 10 rats each were injected with an emulsion containing 0.5 mg of Mycobacterium butyricum in 0.1 ml of light mineral oil, and a negative control group of 10 rats was not injected with adjuvant. Body weights, primary (injected) and contralateral (non-injected) paw volumes (determined by mercury displacement plethysmography) and lateral radiographs (obtained under Ketamine and Xylazine anesthesia) were determined before (day-1) and at various time points including 21 days following adjuvant injection. The rats were anesthetized with an intramuscular injection of 0.03-0.1 ml of a combination of Ketamine (87 mg/kg) and Xylazine (13 mg/kg) for radiographs and injection of adjuvant. Lateral to medial radiographs were made of both hind paws on days 0 and 21 for using the Faxitron (45 kVp, 30 seconds or 45 kVp, 1 second) and Kodak X-OMAT TL film, and were developed in an automatic processor. […] Specific criteria were used to establish the numerical grade of severity for each radiographic change. The maximum possible score per foot was 26. Compounds or vehicle were administered prophylactically beginning post injection of adjuvant and continuing for 21 days. The Compounds were prepared weekly, refrigerated in the dark until used, and vortex mixed immediately prior to administration. […] The liver, thymus and spleens of all rats were removed and weighed and both hind paws were removed and radiographed.
Two-factor (‘treatment’ and ‘time’) analysis of variance with repeated measures on ‘time’ were applied to the percent changes for body weight and foot volumes and to the rank-transformed radiographic total scores. A post hoc Dunnett's test was conducted to compare the effect of treatments to vehicle. A one-way analysis of variance was applied to the thymic and spleen weights followed by the Dunnett's test to compare the effect of treatments to vehicle.
Compounds or vehicle (0.5% Methocel in sterile water) were administered by oral gavage once daily for 21 days following induction of arthritis in female Lewis rats via the sub plantar injection of 0.1 ml of light mineral oil containing 0.5 mg of Mycobacterium butyricum. Control animals were not injected with adjuvant. Body weights were measured 1 day prior to (i.e. day 0) and at 14 and 21 days post induction of arthritis. The data in Table 1 represent the mean increase or decrease in body weight ±1 standard deviation for groups of 9 to 10 animals.
Compounds or vehicle (0.5% Methocel in sterile water) were administered by oral gavage once daily for 21 days following induction of arthritis in female Lewis rats via the sub plantar injection of 0.1 ml of light mineral oil containing 0.5 mg of Mycobacterium butyricum. Control animals were not injected with adjuvant.
(§1) Injected foot volumes were measured by mercury displacement plethysmography prior to induction of arthritis, and on days 4, 14 and 21 post induction of arthritis. The data represent the mean increase in foot volume ±1 standard deviation for groups of 9 to 10 animals. The extent of paw swelling in compound-treated animals was compared to the mean of that in the vehicle-treated group, and percentage inhibition was calculated for each dose level of compound.
as §1, with “Contralateral foot” for “Injected foot”, “prior to,” for “prior to induction of arthritis,”, “and at” for “and on”, “days” for “days 4,”
[…] Data represent the mean weights of organs in mg ±1 standard deviation for groups of 9 to 10 animals.
Total radiographic scores were derived from examination of lateral radiographs obtained prior to, and on day 21 post induction of arthritis.

[2] = target: T1, recombinant human PPARα (GST-PPARα) (Homo sapiens, UniProt Q07869); test: Scintillation Proximity Assay, displacement of [3H2]Compound A from PPARα; format: binding; settings: human PPARα binding; read-out: IC50 (μM: SPA or BND) Alpha
T1 construct: The full length human cDNAs for PPARδ and PPARα were subcloned into the pGEX-KT expression vector; made in house; host or cells: E. coli
T1 sequence (Q07869 1-468): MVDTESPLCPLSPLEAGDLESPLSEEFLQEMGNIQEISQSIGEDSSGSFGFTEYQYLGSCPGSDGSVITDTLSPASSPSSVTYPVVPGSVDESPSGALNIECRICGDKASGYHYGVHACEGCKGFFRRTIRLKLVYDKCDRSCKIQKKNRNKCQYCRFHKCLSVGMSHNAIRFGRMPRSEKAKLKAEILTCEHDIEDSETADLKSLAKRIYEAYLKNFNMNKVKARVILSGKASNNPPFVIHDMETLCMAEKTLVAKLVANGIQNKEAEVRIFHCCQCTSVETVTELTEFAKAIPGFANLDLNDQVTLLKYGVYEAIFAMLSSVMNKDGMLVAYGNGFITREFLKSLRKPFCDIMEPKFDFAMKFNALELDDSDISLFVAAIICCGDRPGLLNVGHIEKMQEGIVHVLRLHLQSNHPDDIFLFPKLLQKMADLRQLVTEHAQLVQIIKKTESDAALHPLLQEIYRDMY
From the text: As an approach to identifying human PPAR agonists, a Scintillation Proximity Assay was used to characterize PPAR-γ, PPAR-δ, and PPAR-α ligands.
Human PPARγ2, human PPARδ and human PPARα were expressed as GST-fusion proteins in E. coli. The full length human cDNA for PPARγ 2 was subcloned into the pGEX-2 T expression vector (Amersham Pharmacia Biotech, Inc.). The full length human cDNAs for PPARδ and PPARα were subcloned into the pGEX-KT expression vector (Amersham Pharmacia Biotech, Inc.). E. coli containing the respective plasmids were propagated, induced, and harvested by centrifugation. The resuspended pellet was broken in a French press and debris removed by centrifugation. Recombinant human PPAR receptors were purified by affinity chromatography on glutathione sepharose. After application to the column, and one wash, receptor was eluted with glutathione. Glycerol (10%) was added to stabilize the receptor and aliquots were stored at −80° C.
After incubation for ˜16 h at 15° C. with shaking, the assay plates were counted in a Packard Topcount with quench correction.

[3] = injected paw, same doses p.o. q.d.
[4] = weight at necropsy, day of euthanasia 21 (Compound 1, indomethacin) or 15 (Compounds 2-6), mean ± SD

IC50 [2]: 1.48 µM
Structure (SMILES): CCCc1cc(Oc2ccccc2)ccc1OCCc1cc2cc(CC(=O)O)ccc2[nH]1 [Compound 2, {2-[2-(4-phenoxy-2-propylphenoxy)ethyl]-1H-indol-5-yl}acetic acid]
Change in Secondary Foot Volume Day 14-0 ([1]; contralateral paw, p.o. q.d., Compounds 1, 2, 4, 6 30 mg/kg/day, Compound 3 50, Compound 5 100, indomethacin 2, mean ± SD): 786 ± 220 µL | Secondary Foot Volume % Inhibition Compared to Vehicle Day 14-0 ([1]; contralateral paw, same doses p.o. q.d.): 0% | Change in Primary Foot Volume Day 4-0 ([1]; injected paw, p.o. q.d., Compounds 1, 2, 4, 6 30 mg/kg/day, Compound 3 50, Compound 5 100, indomethacin 2, mean ± SD): 1642 ± 386 µL | Primary Foot Volume % Inhibition Compared to Vehicle Day 4-0 [1, 3]: 18.6% | Primary Foot Volume % Inhibition Compared to Vehicle Day 14-0 [1, 3]: 21.3% | Change in Primary Foot Volume Day 14-0 ([1]; injected paw, same doses p.o. q.d., mean ± SD): 1875 ± 418 µL | change in body weight Day 14-0 ([1]; p.o. q.d., Compounds 1, 2, 4, 6 30 mg/kg/day, Compound 3 50, Compound 5 100, indomethacin 2 mg/kg/day, mean ± SD): 0.8 ± 7.3**^++ grams | prevention of swelling of primary or secondary paws ([1]; up to day 14, rats then euthanized): failed to prevent swelling of either the primary or secondary paws | Spleen [1, 4]: 590.8 ± 82.1 mg | Thymus [1, 4]: 168.7 ± 44.6 mg
